PMC9911168, “Cytotoxic and pro-apoptotic effects of botanical drugs derived from the indigenous cultivated medicinal plant Paris polyphylla var. yunnanensis” (Frontiers in Pharmacology, 2023)
Values joined by “and” are separate entries in the source; they are usually repeats but may differ in a detail not shown here. Equal entries are not always repeated. “Also recorded” adds a separate entry of the source. Where two headings read alike, the source gives them in different places.

Key:
Type in all cases: cell-based, human
[1] = test system: LO2; test: MTS cell viability assay, normal liver cell LO2; settings: normal liver cell LO2, MTS, read-out: IC50 (±SD) LO2
Method: (§1) Three human liver cancer cell lines (SMMC-7721, HepG2, and SK-HEP-1) and the non-small-cell lung cancer (NSCLC) cell line A549 were obtained from ATCC (Manassas, VA, United States). Normal human cell lines (liver cell line LO2 and lung cell line BEAS-2B) were obtained from ATCC (Manassas, VA, United States). Cells were cultured in RMPI-1640 or DMEM medium (Biological Industries, Kibbutz Beit-Haemek, Israel) supplemented with 10% (v/v) fetal bovine serum (Biological Industries) at 37°C in a humidified atmosphere with 5% (v/v) CO2.
(§2) The effects of the extracts and isolated saponins on cell growth were evaluated by the MTS assay (3-(4,5-dimethylthiazol-2-yl)-5(3-carboxymethoxyphenyl)-2-(4-sulfopheny)-2H-tetrazolium; Promega, Madison, WI, United States) on human tumor cell lines ([Mosmann, 1983]; [Cory et al., 1991]; [Malich et al., 1997]). In a test experiment of cell inhibition, the cell inhibition effects of six crude extracts (100 μg/mL) and six isolated saponins (40 μM) were roughly measured to ascertain whether to measure the IC50 value by MTS assay.
(§3) Each well of a 96-well plate (Multiskan Fc, Therm) was seeded with 100 μL cells at a density of 3,000–5,000 cells per well, with the cell suspension containing 10% (v/v) fetal bovine serum (DMEM or RMPI1640, Biological Industries, Kibbutz Beit-Haemek, Israel). After 12–24 h of inoculation and culture at 37°C, the extracts or saponins were added at the indicated concentrations after being dissolved in dimethyl sulfoxide (DMSO, Biological Industries, Kibbutz Beit-Haemek, Israel) in a final volume of 200 μL per well, each in triplicate. The six crude extracts were added at concentrations of 100, 20, 4, 0.8, and 0.16 μg/mL; the six isolated saponins were added at concentrations of 10, 5, 2.5, 1.25, 0.625, and 0.3125 μM. After culture for 48 h at 37°C, 20 μL of MTS solution and 100 μL of DMEM were added to each well; three blank wells were set aside with 20 μL MTS solution and 100 μL DMEM. After an incubation for another 2–4 h, the absorbance at 492 nm was measured. Cisplatin and Paclitaxel (MeilunBio) were used as a positive control in each experiment. The cell growth curve was drawn with the concentration as the abscissa and the cell survival rate as the ordinate. The IC50 value of each saponin was calculated by the two-point method ([Reed and Muench, 1938]).

[2] = test system: A549; test: MTS cell viability assay, A549; settings: NSCLC cell line A549, MTS, 48 h; for IC50: read-out: IC50 (±SD) A549
Method: as §2, §3

[3] = test system: BEAS-2B; test: MTS cell viability assay, normal lung cell BEAS-2B; settings: normal lung cell BEAS-2B, MTS, read-out: IC50 (±SD) BEAS-2B
Method: as §1, §2, §3

[4] = test system: SK-HEP-1; test: MTS cell viability assay, SK-HEP-1; settings: liver cancer cell line SK-HEP-1, MTS, 48 h; for IC50: read-out: IC50 (±SD) SK-HEP-1
Method: as §2, §3

[5] = test system: HepG2; test: MTS cell viability assay, HepG2; settings: liver cancer cell line HepG2, MTS, 48 h; for IC50: read-out: IC50 (±SD) HepG2
Method: as §2, §3

[6] = test system: A549 cells; test: Cell cycle analysis (PI staining, flow cytometry), A549; settings: A549, 24 h; saponins 1 and 5 at 0.5 μM, other four at 1 μM
Method: (§4) Cell cycle distribution was determined by propidium iodide (PI, BD, Pharmingen) staining ([Kong et al., 2016]; [Wei et al., 2021]). Briefly, three cancer cell lines were cultured in six-well plates at a density of 3 × 10^5 cells per well for 24 h before treatment with each of the six isolated saponins at the indicated concentrations for 24 h. The cells were collected, centrifuged, and washed twice with ice-cold PBS. Cells were fixed in 70% (v/v) ice-cold ethanol at 4°C overnight and washed again in PBS twice. The cells were incubated with 100 μL RNase A at 37°C for 30 min in the dark, after which 400 μL PI was added to the cells with RNase A in the dark at 4°C for 15 min. The cell cycle stage was analyzed by flow cytometry (BD, FACSCelesta, United States) with FLOWJO software (FlowJo, Ashland, OR, United States).

[7] = test system: HepG2 cells; test: Cell cycle analysis (PI staining, flow cytometry), HepG2; settings: HepG2, 24 h, 1 μM
Method: as §4

[8] = test system: SMMC-7721; test: MTS cell viability assay, SMMC-7721; settings: liver cancer cell line SMMC-7721, MTS, 48 h; for IC50: read-out: IC50 (±SD) SMMC-7721
Method: as §2, §3

[9] = test system: A549 cells; test: Apoptosis by annexin V-FITC/PI staining, A549; settings: A549, saponins 5 μM, Figure 7
Method: (§5) Double staining with annexin V-fluorescein isothiocyanate (FITC) and PI was used to determine the effects of the six saponins on cell apoptosis by flow cytometry ([Homburg et al., 1995]; [Vermes et al., 1995]; [Casciola-Rosen et al., 1996]). The effects of the six isolated saponins on apoptosis were determined using an annexin V-FITC apoptosis kit (BD, Pharmingen); the chemotherapy drug doxorubicin (DOX, Beyotime Institute of Biotechnology, Shanghai, China) was used as the positive control. Cells were cultured in six-well plates at a density of 3 × 10^5 cells per well for 24 h before being treated with each of the six isolated saponins at the indicated concentrations for 24 h. The cells were collected, centrifuged, and washed twice with ice-cold phosphate-buffered saline (PBS). The cells were stained with annexin V-FITC and PI for 15 min in the dark at room temperature before analysis by flow cytometry (BD, FACSCelesta, America). Annexin V-FITC^+ and PI^+ (Q2) were considered late-stage apoptotic cells, while annexin V-FITC^+ and PI^− (Q3) cells were considered early-stage apoptotic cells. Annexin V-FITC^– and PI^+ (Q1) were necrotic or mechanically damaged cells, and annexin V-FITC^– and PI^− (Q4) cells were healthy living cells.

[10] = test system: HepG2 cells; test: Apoptosis by annexin V-FITC/PI staining, HepG2; settings: HepG2, saponins 5 μM, Figure 7
Method: as §5

[11] = test system: SMMC-7721 cells; test: Apoptosis by annexin V-FITC/PI staining, SMMC-7721; settings: SMMC-7721, saponins 5 μM, Figure 7
Method: as §5

Molecule | IC50 ([1]; Homo sapiens, L02) | IC50 ([2]; Homo sapiens) | IC50 ([3]; Homo sapiens) | IC50 ([4]; Homo sapiens, SK-HEP1) | IC50 ([5]; Homo sapiens) | cell cycle phase with increased proportion of cells compared to DMSO control [6] | IC50 ([8]; Homo sapiens) | apoptosis rate (induction of apoptosis, in words) [9] | apoptosis rate (induction of apoptosis, in words) [10] | further results
CC1CCC2(OC1)OC1CC3C4CC=C5CC(OC6OC(CO)C(OC7OC(C)C(O)C(O)C7O)C(O)C6OC6OC(C)C(O)C(O)C6O)CCC5(C)C4CCC3(C)C1C2C [saponin 3, diosgenin-3-O-α-L-rhamnopyranosyl-(1→2)-[α-L-rhamnopyranosyl-(1→4)]-β-D-glucopyranoside] | 3780 ± 180 nM | 1690 ± 40 nM | 3070 ± 190 nM | 1800 ± 70 nM | 3800 ± 50 nM | G0/G1 phase | 2560 ± 80 nM |  |  | increase of proportion of cells in S phase compared to DMSO control [7]: 27.5%
CC1CCC2(OC1)OC1CC3C4CC=C5CC(OC6OC(CO)C(OC7OC(CO)C(O)C7O)C(O)C6OC6OC(C)C(O)C(O)C6O)CCC5(C)C4CCC3(C)C1(O)C2C [saponin 2, pennogenin-3-O-α-L-arabinofuranosyl-(1→4)-[α-L-rhamnopyranosyl-(1→2)]-β-D-glycopyranoside] | 2330 ± 100 nM | 1250 ± 20 nM | 4950 ± 40 nM | 1580 ± 80 nM | 2140 ± 10 nM | S and G2/M phases | 1880 ± 70 nM | strong apoptosis | next | cell cycle phase with increased proportion of cells compared to DMSO control [7]: S and G2/M phases
N.N.[Cl][Pt][Cl] [Cisplatin, reference compound] |  |  |  |  |  |  |  |  |  | IC50 [1]: 13800 ± 480 nM; IC50 (±SD) A549 [2]: 16.74 ± 0.68 µg/mL; IC50 [2]: 26100 ± 520 nM; IC50 [3]: > 40000 nM; IC50 (±SD) SK-HEP-1 [4]: 8.79 ± 0.49 µg/mL; IC50 [4]: 21000 ± 710 nM; IC50 (±SD) HepG2 [5]: 1.90 ± 0.13 µg/mL; IC50 [5]: 5670 ± 100 nM; IC50 (±SD) SMMC-7721 [8]: 5.05 ± 0.12 µg/mL; IC50 [8]: 17800 ± 570 nM
pennogenin-3-O-α-L-rhamnopyranosyl-(1→2)-[α-L-rhamnopyranosyl-(1→4)]-β-D-glucopyranoside [saponin 1] |  |  |  |  |  | G2/M phase |  | stronger apoptosis than the positive control DOX | next and stronger apoptosis than the positive control DOX | IC50 [1]: 1790 ± 100 nM; apoptosis rate (induction of apoptosis, in words) [11]: stronger apoptosis than the positive control DOX; apoptosis rate (induction of apoptosis, in words) ([11]; listed as Saponin 1): most effective in inducing apoptosis; IC50 [2]: 980 ± 10 nM; IC50 [3]: 1190 ± 10 nM; IC50 [4]: 900 ± 40 nM; IC50 [5]: 1780 ± 10 nM; increase of proportion of cells in S phase compared to DMSO control [7]: 23.7%; apoptosis rate (induction of apoptosis, in words) ([9]; listed as Saponin 1): most effective in inducing apoptosis; apoptosis rate (induction of apoptosis, in words) ([10]; listed as Saponin 1): also effective; IC50 [8]: 760 ± 30 nM
CC1CCC2(OC1)OC1CC3C4CC=C5CC(OC6OC(CO)C(OC7OC(CO)C(O)C7O)C(O)C6OC6OC(C)C(O)C(O)C6O)CCC5(C)C4CCC3(C)C1C2C [saponin 4, diosgenin-3-O-α-L-arabinofuranosyl-(1→4)-[α-L-rhamnopyranosyl-(1→2)]-β-D-glucopyranoside] | 850 ± 10 nM | 580 ± 10 nM | 1820 ± 90 nM | 660 ± 40 nM | 1590 ± 30 nM | increase in the proportion of cells at the G2/M phase | 720 ± 20 nM |  |  | increase of proportion of cells in the G2/M phase compared to DMSO control [7]: 17.2%
CC1CCC2(OC1)OC1CC3C4CC=C5CC(OC6OC(CO)C(OC7OC(C)C(OC8OC(C)C(O)C(O)C8O)C(O)C7O)C(O)C6OC6OC(C)C(O)C(O)C6O)CCC5(C)C4CCC3(C)C1(O)C2C [saponin 5, pennogenin 3-O-α-L-rhamnopyranosyl-(1→2)-[α-L-rhamnopyranosyl-(1→4)-α-L-rhamnopyranosyl-(1→4)]-β-D-glucopyranoside] | 900 ± 20 nM | 900 ± 10 nM | 940 ± 30 nM | 940 ± 60 nM | 1570 ± 10 nM | S phase | 1200 ± 100 nM | stronger apoptosis than the positive control DOX | highest apoptosis rate; also recorded: stronger apoptosis than the positive control DOX | apoptosis rate (induction of apoptosis, in words) [11]: substantial induction of apoptosis; also recorded: stronger apoptosis than the positive control DOX; cell cycle phase with increased proportion of cells compared to DMSO control [7]: S and G2/M phases; apoptosis rate (induction of apoptosis, in words) ([9]; listed as Saponin 5): strong apoptosis
CC(=O)O[C@H]1C(=O)[C@@]2(C)[C@H]([C@H](OC(=O)c3ccccc3)[C@]3(O)C[C@H](OC(=O)[C@H](O)[C@@H](NC(=O)c4ccccc4)c4ccccc4)C(C)=C1C3(C)C)[C@]1(OC(C)=O)CO[C@@H]1C[C@@H]2O [Paclitaxel, reference compound] | < 10 nM | < 0.01 µg/mL and < 10 nM | > 5000 nM | < 0.01 µg/mL and < 10 nM | < 0.01 µg/mL and < 10 nM |  | 0.12 µg/mL and 180 nM |  |  | 
